# Experimental data taken from ChEMBL document CHEMBL4145564, “NAD(P)H:Quinone Oxidoreductase 1 (NQO1) as a Therapeutic and Diagnostic Target in Cancer” (J Med Chem, 2018).
# Assays:
# [1] = target: T1, NAD(P)H dehydrogenase [quinone] 1 (Homo sapiens, UniProt P15559); test: Inhibition of recombinant human NQO1 in presence of NADPH measured at 2 sec intervals for 5 mins
# [2] = target: T1, NAD(P)H dehydrogenase [quinone] 1; test: Inhibition of recombinant human NQO1 expressed in Escherichia coli using DCPIP as substrate assessed as rate of reduction of DCPIP in presence of NADH after 5 mins by spectrophotometric analysis
# [3] = target: T1, NAD(P)H dehydrogenase [quinone] 1; test: Inactivation of recombinant human NQO1 expressed in Escherichia coli using DCPIP as substrate assessed as rate of reduction of DCPIP by spectrophotometric analysis
# [4] = target: T1, NAD(P)H dehydrogenase [quinone] 1; test: Inactivation of recombinant human NQO1 expressed in Escherichia coli using DCPIP as substrate assessed as partition ratio up to 200 nM by spectrophotometric analysis
# Homo sapiens = test: Toxicity in iv dosed human assessed as maximum tolerated dose administered as infusion; format: organism-based; settings: in vivo
# [5] = Half life in athymic nude mouse blood; format: ADME, organism-based
# [6] = target: T2, NAD(P)H dehydrogenase [quinone] 1 (Rattus norvegicus, UniProt P05982); test: Competitive binding affinity to rat liver NQO1 in presence of NADPH
# T2 sequence (P05982 whole entry): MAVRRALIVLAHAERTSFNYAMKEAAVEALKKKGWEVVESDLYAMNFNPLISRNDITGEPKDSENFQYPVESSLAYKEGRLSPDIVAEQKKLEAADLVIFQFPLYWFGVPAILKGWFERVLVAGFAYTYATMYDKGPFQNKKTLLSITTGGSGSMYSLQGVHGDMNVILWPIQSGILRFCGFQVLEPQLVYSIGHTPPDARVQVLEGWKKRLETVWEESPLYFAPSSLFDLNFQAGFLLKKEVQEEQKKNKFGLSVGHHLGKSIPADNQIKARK
structure (smiles),measurement,setting,value
CN1C(=O)C(O)(CC(=O)c2cc3c4c(cccc4c2)CC3)c2ccccc21 (stereo not drawn),IC50,[1],2.04 µM
COC1=CC(=O)c2c(c(COc3ccc([N+](=O)[O-])cc3)c(C)n2C)C1=O,Ki,[2],0.45 µM
same,Kinact,[3],0.78 min⁻¹
same,Ratio,[4],1.4
CC1=C(N2CC2)C(=O)C(CO)=C(N2CC2)C1=O,MTD,Homo sapiens,1430 ug/m2/day
S=C(Cc1ccc2c3c([nH]c2c1)CCCC3)N1CCOCC1,IC50,[1],1.47 µM
CC1(C)CCC2=C(O1)c1ccccc1C(=O)C2=O [LAPACHONE],half-life,[5],24 min
O=c1oc2ccccc2c(O)c1Cc1c(O)c2ccccc2oc1=O [DICUMAROL],Ki,[6],0.001 to 0.01 µM
